The results in this text go back to patent publication US20220313698A1, “MODULATORS OF CYSTIC FIBROSIS TRANSMEMBRANE CONDUCTANCE REGULATOR” (Vertex Pharmaceuticals Incorporated, priority 2019, published 2022).

This assay addresses CFTR-mediated chloride transport (Homo sapiens, UniProt P13569). Put plainly: Corrector Assay A - membrane potential dye assay (enteroid cells). The note with it: for Corrector Assay A % activity: % of chloride transport of triple combination control (1 μM (14S)-dispiro macrocycle + 3 μM tezacaftor + 300 nM ivacaftor); for EC50: read-out: Corrector Assay A EC50, human intestinal enteroid cells, 18-24 h incubation, acute 10 μM forskolin + 300 nM ivacaftor.

Where only a bound is given, the exact number is not on record here.

What is called EC50 is the concentration at which the effect is half-maximal. Take `CC(=O)NCc1cccc([C@H]2CC[C@@H]3CN(c4nc(C(C)(C)C)ccc4C(=O)NS(=O)(=O)c4cccc(n4)N2)C(C)(C)C3)n1` [Compound 100, N-({6-[(14S,17R)-8-tert-Butyl-12,12-dimethyl-2,2,4-trioxo-2λ^6-thia-3,9,11,18,23-pentaazatetracyclo[17.3.1.111,14.05,10]tetracosa-1(22),5,7,9,19(23),20-hexaen-17-yl]pyridin-2-yl}methyl)acetamide]: the “Corrector Assay A % activity” value is given as “+++ (+++ is >60%)” and the EC50 is less than 1000 nM.

For `COC(=O)NCc1cccc([C@H]2CC[C@@H]3CN(c4nc(C(C)(C)C)ccc4C(=O)NS(=O)(=O)c4cccc(n4)N2)C(C)(C)C3)n1` [Compound 101, Methyl N-({6-[(14S,17R)-8-tert-butyl-12,12-dimethyl-2,2,4-trioxo-2λ^6-thia-3,9,11,18,23-pentaazatetracyclo[17.3.1.111,14.05,10]tetracosa-1(22),5,7,9,19(23),20-hexaen-17-yl]pyridin-2-yl}methyl)carbamate], the “Corrector Assay A % activity” value is on record as “++ (++ is 30-60%)” and the EC50 was less than 1000 nM.

Turning to `CN(C)Cc1ccc(C2CC[C@@H]3CN(c4nc(C(C)(C)C)ccc4C(=O)NS(=O)(=O)c4cccc(n4)N2)C(C)(C)C3)nc1` (stereo partly shown) [Compound 102], the “Corrector Assay A % activity” value is “+++ (+++ is >60%)” and the concentration for a half-maximal effect (EC50) is less than 1000 nM.

`CN(C)Cc1ccc(C2CC[C@@H]3CN(c4nc(C(C)(C)C)ccc4C(=O)NS(=O)(=O)c4cccc(n4)N2)C(C)(C)C3)nc1` (stereo partly shown) [Compound 103]: the “Corrector Assay A % activity” value is on record as “++ (++ is 30-60%)” and the EC50 is less than 1000 nM.

Turning to `CC(C)(C)c1ccc2c(n1)N1C[C@@H](CC[C@H](c3cccc(CCN)n3)Nc3cccc(n3)S(=O)(=O)NC2=O)CC1(C)C` [Compound 104], the “Corrector Assay A % activity” value is recorded as “++ (++ is 30-60%)” and the EC50 is less than 1000 nM.

On to `CC(C)(C)CCc1ccc2c(n1)N1C[C@@H](CC[C@H](c3ccccn3)Nc3cccc(n3)S(=O)(=O)NC2=O)CC1(C)C` [Compound 105, (14S,17R)-8-(3,3-dimethylbutyl)-12,12-dimethyl-17-(pyridin-2-yl)-2λ^6-thia-3,9,11,18,23-pentaazatetracyclo[17.3.1.111,14.05,10]tetracosa-1(22),5,7,9,19(23),20-hexaene-2,2,4-trione], for which the “Corrector Assay A % activity” value was “+++ (+++ is >60%)” and the EC50 is less than 1000 nM.

In the case of `CC(C)(C)/C=C/c1ccc2c(n1)N1C[C@@H](CC[C@H](c3ccccn3)Nc3cccc(n3)S(=O)(=O)NC2=O)CC1(C)C` [Compound 106, (14S,17R)-8-[(1E)-3,3-dimethylbut-1-en-1-yl]-12,12-dimethyl-17-(pyridin-2-yl)-2λ^6-thia-3,9,11,18,23-pentaazatetracyclo[17.3.1.111,14.05,10]tetracosa-1(22),5,7,9,19(23),20-hexaene-2,2,4-trione], the “Corrector Assay A % activity” value is reported as “+++ (+++ is >60%)” and the EC50 was less than 1000 nM.

`COCCc1ccc(C2CC[C@@H]3CN(c4nc(C(C)(C)C)ccc4C(=O)NS(=O)(=O)c4cccc(n4)N2)C(C)(C)C3)nc1` (stereo partly shown) [Compound 111]: the “Corrector Assay A % activity” value is given as “++ (++ is 30-60%)” and the EC50 is less than 1000 nM.

On to `COCCc1ccc(C2CC[C@@H]3CN(c4nc(C(C)(C)C)ccc4C(=O)NS(=O)(=O)c4cccc(n4)N2)C(C)(C)C3)nc1` (stereo partly shown) [Compound 112], for which the “Corrector Assay A % activity” value is recorded as “++ (++ is 30-60%)” and the EC50 was less than 1000 nM.

Take `CC(C)(C)c1ccc2c(n1)N1C[C@@H](CCC(c3ccc(CCN)cn3)Nc3cccc(n3)S(=O)(=O)NC2=O)CC1(C)C` (stereo partly shown) [Compound 113]: the “Corrector Assay A % activity” value is “++ (++ is 30-60%)” and the half-maximal effective concentration (EC50) was less than 1000 nM.

Take `CC(C)(C)c1ccc2c(n1)N1C[C@@H](CCC(c3ccc(CCN)cn3)Nc3cccc(n3)S(=O)(=O)NC2=O)CC1(C)C` (stereo partly shown) [Compound 114]: the “Corrector Assay A % activity” value is reported as “++ (++ is 30-60%)” and the 50% effective concentration (EC50) was less than 1000 nM.

Regarding `CC(C)(C)OC(=O)N1CCC(c2ccnc(C3CC[C@@H]4CN(c5nc(C(C)(C)C)ccc5C(=O)NS(=O)(=O)c5cccc(n5)N3)C(C)(C)C4)c2)CC1` (stereo partly drawn) [Compound 117, tert-butyl 4-{2-[(14S)-8-tert-butyl-12,12-dimethyl-2,2,4-trioxo-2λ^6-thia-3,9,11,18,23-pentaazatetracyclo[17.3.1.111,14.05,10]tetracosa-1(23),5(10),6,8,19,21-hexaen-17-yl]pyridin-4-yl}piperidine-1-carboxylate], the “Corrector Assay A % activity” value is listed as “+++ (+++ is >60%)” and the EC50 was less than 1000 nM.

Turning to `CC(C)(C)OC(=O)N1CCC(c2ccnc(C3CC[C@@H]4CN(c5nc(C(C)(C)C)ccc5C(=O)NS(=O)(=O)c5cccc(n5)N3)C(C)(C)C4)c2)CC1` (stereo partly drawn) [Compound 118, tert-butyl 4-{2-[(14S)-8-tert-butyl-12,12-dimethyl-2,2,4-trioxo-2λ^6-thia-3,9,11,18,23-pentaazatetracyclo[17.3.1.111,14.05,10]tetracosa-1(23),5(10),6,8,19,21-hexaen-17-yl]pyridin-4-yl}piperidine-1-carboxylate], the “Corrector Assay A % activity” value is reported as “++ (++ is 30-60%)” and the EC50 was less than 1000 nM.

`CC(C)(C)c1ccc2c(n1)N1C[C@@H](CCC(c3cc(C4CCNCC4)ccn3)Nc3cccc(n3)S(=O)(=O)NC2=O)CC1(C)C` (stereo partly shown) [Compound 123]: the “Corrector Assay A % activity” value is given as “+++ (+++ is >60%)” and the concentration giving a half-maximal response (EC50) was less than 1000 nM.

For the compound `CC(C)(C)c1ccc2c(n1)N1C[C@@H](CCC(c3cc(C4CCNCC4)ccn3)Nc3cccc(n3)S(=O)(=O)NC2=O)CC1(C)C` (stereo partly drawn) [Compound 124, (14S)-8-tert-butyl-12,12-dimethyl-17-[4-(piperidin-4-yl)pyridin-2-yl]-2λ^6-thia-3,9,11,18,23-pentaazatetracyclo[17.3.1.111,14.05,10]tetracosa-1(23),5(10),6,8,19,21-hexaene-2,2,4-trione], the “Corrector Assay A % activity” value is listed as “++ (++ is 30-60%)” and the concentration for a half-maximal effect (EC50) was less than 1000 nM.

Consider `CC(C)(C)c1ccc2c(n1)N1C[C@@H](CCC(c3ccc(-c4cc[nH]n4)cn3)Nc3cccc(n3)S(=O)(=O)NC2=O)CC1(C)C` (stereo partly shown) [Compound 129], for which the “Corrector Assay A % activity” value is listed as “+++ (+++ is >60%)” and the EC50 was less than 1000 nM.

In the case of `CC(C)(C)c1ccc2c(n1)N1C[C@@H](CCC(c3ccc(-c4cc[nH]n4)cn3)Nc3cccc(n3)S(=O)(=O)NC2=O)CC1(C)C` (stereo partly shown) [Compound 130], the “Corrector Assay A % activity” value is recorded as “+++ (+++ is >60%)” and the EC50 is less than 1000 nM.

Turning to `CC(C)(C)c1ccc2c(n1)N1C[C@@H](CC[C@@H](c3cccc(C4CCNCC4)n3)Nc3cccc(n3)S(=O)(=O)NC2=O)CC1(C)C` [Compound 131], the “Corrector Assay A % activity” value is “+ (+ is <30%)” and the EC50 is more than 3000 nM.

Turning to `CC(C)(C)c1ccc2c(n1)N1C[C@@H](CC[C@H](c3cccc(C4CCNCC4)n3)Nc3cccc(n3)S(=O)(=O)NC2=O)CC1(C)C` [Compound 132, (14S,17R)-8-tert-Butyl-12,12-dimethyl-17-[6-(piperidin-4-yl)pyridin-2-yl]-2λ^6-thia-3,9,11,18,23-pentaazatetracyclo[17.3.1.111,14.05,10]tetracosa-1(23),5(10),6,8,19,21-hexaene-2,2,4-trione], the “Corrector Assay A % activity” value was “++ (++ is 30-60%)” and the concentration giving a half-maximal response (EC50) was less than 1000 nM.

In the case of `CC(C)(C)c1ccc2c(n1)N1C[C@@H](CC[C@@H](c3cccc(CCCN)n3)Nc3cccc(n3)S(=O)(=O)NC2=O)CC1(C)C` [Compound 133], the “Corrector Assay A % activity” value is “+ (+ is <30%)” and the EC50 was less than 1000 nM.
